Consider 1 compound from publication PMC4580987, “Catalytic site inhibition of insulin-degrading enzyme by a small molecule induces glucose intolerance in mice” (Nature Communications, 2015).

The target of one series is T1, hIDE (Homo sapiens, UniProt P14735).
T1 construct: made in house
T1 sequence (P14735 1-1019): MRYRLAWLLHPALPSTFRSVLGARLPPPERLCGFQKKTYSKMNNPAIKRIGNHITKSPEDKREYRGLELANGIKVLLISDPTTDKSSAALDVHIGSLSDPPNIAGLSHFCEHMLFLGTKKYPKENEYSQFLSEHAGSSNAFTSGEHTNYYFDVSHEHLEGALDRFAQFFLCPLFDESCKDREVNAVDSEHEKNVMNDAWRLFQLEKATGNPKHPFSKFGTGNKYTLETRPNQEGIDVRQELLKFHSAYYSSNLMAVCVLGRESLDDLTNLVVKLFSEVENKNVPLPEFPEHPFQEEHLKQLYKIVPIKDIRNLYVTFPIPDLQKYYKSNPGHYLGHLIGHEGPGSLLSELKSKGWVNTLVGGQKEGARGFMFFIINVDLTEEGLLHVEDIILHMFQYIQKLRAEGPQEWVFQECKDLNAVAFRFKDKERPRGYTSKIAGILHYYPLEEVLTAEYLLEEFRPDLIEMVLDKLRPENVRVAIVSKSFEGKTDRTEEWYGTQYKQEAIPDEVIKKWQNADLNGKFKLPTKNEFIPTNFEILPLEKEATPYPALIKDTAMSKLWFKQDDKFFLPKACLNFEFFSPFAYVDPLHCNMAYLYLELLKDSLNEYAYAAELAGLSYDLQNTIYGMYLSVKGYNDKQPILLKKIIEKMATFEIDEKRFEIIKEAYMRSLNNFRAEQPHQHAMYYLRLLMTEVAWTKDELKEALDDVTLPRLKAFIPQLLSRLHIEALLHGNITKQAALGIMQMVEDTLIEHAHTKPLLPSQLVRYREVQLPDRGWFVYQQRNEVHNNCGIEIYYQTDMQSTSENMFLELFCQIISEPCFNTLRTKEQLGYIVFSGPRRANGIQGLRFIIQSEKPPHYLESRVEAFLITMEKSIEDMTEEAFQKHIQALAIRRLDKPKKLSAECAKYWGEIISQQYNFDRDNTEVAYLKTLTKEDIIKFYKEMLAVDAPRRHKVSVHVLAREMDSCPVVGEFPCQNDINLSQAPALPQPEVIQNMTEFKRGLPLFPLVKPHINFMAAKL
Nature of the series: In vitro hIDE inhibition of Aβ16–23-based substrate hydrolysis. It counts as biochemical. How it is done:
In vitro IDE activity was measured with a quenched substrate […]. Human recombinant IDE was cloned and purified as previously described. […] All measurements were carried out as 8-point dose response curves and reported as the average of at least three independent measurements. […] Data analysis was performed using Xlfit v 5.0 and GraphPad Prism v 4.0. Nonlinear curve fitting and statistical analysis was done using built-in functions.

The target of the next series is T2, human NEP (Homo sapiens, UniProt P08473).
T2 construct: purchased R&D Systems
T2 sequence (P08473 whole entry): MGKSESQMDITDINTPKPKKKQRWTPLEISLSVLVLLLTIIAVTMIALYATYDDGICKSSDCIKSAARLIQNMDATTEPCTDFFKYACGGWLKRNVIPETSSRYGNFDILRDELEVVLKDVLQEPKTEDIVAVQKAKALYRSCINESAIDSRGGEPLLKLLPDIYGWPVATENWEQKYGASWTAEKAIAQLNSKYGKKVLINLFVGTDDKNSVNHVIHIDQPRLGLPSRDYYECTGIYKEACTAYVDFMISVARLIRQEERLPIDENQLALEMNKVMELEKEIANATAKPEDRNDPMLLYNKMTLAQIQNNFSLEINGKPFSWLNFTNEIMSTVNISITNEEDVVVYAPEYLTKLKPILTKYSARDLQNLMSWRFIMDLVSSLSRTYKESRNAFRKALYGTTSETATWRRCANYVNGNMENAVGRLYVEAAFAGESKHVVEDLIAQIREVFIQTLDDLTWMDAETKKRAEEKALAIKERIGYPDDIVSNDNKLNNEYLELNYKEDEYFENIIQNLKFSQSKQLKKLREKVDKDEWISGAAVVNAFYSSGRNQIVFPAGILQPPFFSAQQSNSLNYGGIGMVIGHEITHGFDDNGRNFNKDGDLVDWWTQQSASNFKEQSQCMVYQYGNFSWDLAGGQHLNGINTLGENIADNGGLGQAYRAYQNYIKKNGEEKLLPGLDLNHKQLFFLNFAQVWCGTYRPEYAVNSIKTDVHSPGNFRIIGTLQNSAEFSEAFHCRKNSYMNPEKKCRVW
Nature of the series: Neutral endopeptidase (NEP) selectivity assay. The series is classed as biochemical. To be noted: means of two experiments minimum, s.d.±10%; read-out: Selectivity IC50 hNEP. How it is done:
Briefly, human NEP (R&D Systems; 200 ng ml^−1) was incubated 10 min at room temperature with compound in Hepes 50 mM, NaCl 100 mM, pH 7.4 and the enzymatic reaction started by adding the substrate (final concentration 200 μM). […] Briefly, human ACE (R&D Systems) was incubated 10 min at room temperature with compound in Tris 50 mM 1% NaCl pH 7.4 and the enzymatic reaction is started by adding the substrate (final concentration 300 μM). […] In vitro activity was assayed at CEREP.SA as follows.

Series [1] in a line: Pharmacokinetics in mice, intraperitoneal. It counts as in vivo. The following applies: C57Bl6/N, mouse, plasma, 30 mg kg^−1, ip, male mice. How it is done: Three mice per time point were anesthetized with isoflurane and aliquots taken from the retroorbital sinus using sampling heparinated tubes (4 °C) at 10, 20, 30 min, 1, 2 and 4 h after administration of a single dose of ligands. The blood samples were centrifuged (5,000g, 15 min) for plasma separation. Plasma samples were thawed on ice. Aliquots of 50 μl were precipitated with 450 μl of ice-cold acetonitrile containing (R)-N-[3-(1-Hydroxycarbamoylmethyl-2-naphthalen-2-yl-ethyl)-3H-[1,2,3]triazol-4-ylmethyl]-benzamide (0.5 μM) used as internal standard. The samples were vigorously mixed with a vortex and centrifuged at 10,000 r.p.m. at 4 °C for 10 min, and the supernatants were transferred into tubes for LC−MS−MS analysis (Supplementary Table 2). Spiked standard solutions (10, 50, 100, 500, 1,000, 5,000, 10,000 and 50,000 nM) were prepared the same way. The protocol was approved by the ethical comitee CEEA Nord Pas de Calais (CEEA75).

The subject of series [2] is C57BL/6J mice. Put plainly: Intraperitoneal glucose tolerance test (IPGTT). It counts as in vivo, mouse. To be noted: 50 mg kg^−1 ip, intraperitoneal glucose 1.5 g kg^−1. How it is done: OGTT and IPGTT were performed on 11 to 16 week-old male or female mice (n=4–7 per experimental group). C57BL/6J mice were purchased from Charles River Laboratories (France), Stock no. 000664. C57BL/6J Ide−/− mice were obtained from Guenette[20] and bred in the animal facility of INSERM U1151. WT C57BL/6J mice of the same genetic background were bred in the same animal facility in parallel. NOD Ide−/− mice were generated by backcrossing C57BL/6J Ide−/− mice with NOD wt mice bred in the animal facility of INSERM U1151 and maintained in this facility together with WT NOD mice. Normoglycemic WT and Ide−/− female NOD mice aged 14 weeks were used for OGTTs. Following a 6 h fasting period, a small tail cut was made, basal blood glucose was determined. […] Fifteen minutes later, blood glucose concentrations were measured before and after (up to 120 min, as shown) oral (2 g kg^−1 or 3 g kg^−1, as shown) or intraperitoneal (1.5 g kg^−1) glucose administration. […] Blood glucose levels were determined using an Accu-Check glucometer (Roche Diagnostics). Areas under the curves (AUC) for OGTT and IPGTT were calculated to evaluate glucose tolerance. Plasma insulin concentrations were measured by ELISA (cat. no. 10-1247-01,Mercodia) in blood samples collected 15 min before and 15 and 90 min relative to oral glucose injection. […]

Series [3] relates to C57BL/6J mice. Nature of the series: Pyruvate tolerance test. To be noted: 50 mg kg^−1 ip, pyruvate 2 g kg^−1. It counts as in vivo, mouse. The procedure: Pyruvate tolerance test was performed on 18 h-fasted mice (12 week-old male C57BL/6J mice, n=8 for each group, randomized on blood glucose at the end of the fasting period). […] Fifteen minutes later, blood glucose was measured before and after (up to 120 min) intraperitoneal sodium pyruvate (2 g kg^−1) injection. The AUC of glycaemia versus time were calculated to estimate the total glucose synthesized from pyruvate. Blood glucose levels were determined using an Accu-Check glucometer (Roche Diagnostics). The protocol was approved by the ethical comitee CEEA Nord Pas de Calais (CEEA75).

Values joined by “and” are separate entries in the source; they are usually repeats but may differ in a detail not shown here. Equal values may be shown once. “Also recorded” adds a separate entry of the source.

`O=C(C[C@@H](Cc1ccc2ccccc2c1)n1cc(CNC(=O)c2ccc(F)cc2)nn1)NO` [Compound 1] showed a half-maximal inhibitory concentration (IC50) at hIDE of 0.3 µM. Moreover, at human NEP, the IC50 came out at 2.6 µM. Also, in series [1], the time to peak (Tmax) turned out to be 10 min and the half-life came to 80 min. In series [1] (read-out: AUC0→4h), the AUC(0-t) is 4270 ng·h/mL. Besides, the Cmax in series [1] (DMSO solution) was 4100 ng/mL and 9.2 µM. The “plasma glucose / glucose tolerance in IPGTT” value with C57BL/6J mice [2] is reported as “Impairs glucose tolerance in IPGTT”. Also, the “hepatic gluconeogenesis in pyruvate tolerance test” value with C57BL/6J mice [3] was “No effect on gluconeogenesis; also recorded: not altered”.

In general, IC50 refers to the point on the concentration scale where inhibition reaches its midpoint. One may read the Tmax as the time from dosing to the highest level. A word on the half-life: it is how long it takes for the measured level to halve. A high value points to slow decline. A word on the Cmax: it is the maximum level reached in the sampled fluid or tissue.
